Results: patent US6472389B1, “Pyrrolo[1,2-b] pyridazine derivatives having sPLA2 inhibitory effect” (Shionogi & Co., Ltd., priority 1998, dated 2002)

Key:
[1] = molecular target: T1, recombinant human secretory phospholipase A2 (Homo sapiens, UniProt P14555); assay: Inhibition test of human secretory phospholipase A2 (chromogenic assay, 96 well microtiterplate); type: biochemical; details: sPLA2 50 ng/well, 40° C., 30 minutes, OD 405 nm, substrate 1,2-bis(heptanoylthio)-1,2-dideoxy-sn-glycero-3-phospholylcholine
T1 sequence (P14555 21-144): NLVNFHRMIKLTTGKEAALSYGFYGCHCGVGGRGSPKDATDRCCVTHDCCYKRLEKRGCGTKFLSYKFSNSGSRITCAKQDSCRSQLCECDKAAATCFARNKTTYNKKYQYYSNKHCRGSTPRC
Excerpt: Inhibition Test of Human Secretory Phospholipase A2
In order to identify and evaluate an inhibitor of recombinant human secretory phospholipase A2, the following chromogenic assay is utilized. The assay herein has been applied for high volume screening wherein 96 well microtiterplate is used. A general explanation for such assay is described in “Analysis of Human Synovial Fluid Phospholipase A2 on Short Chain Phosphatidylcholine-Mixed Micelles: Development of a Spectrophotometric Assay Suitable for a Micortiterplate Reader” (Analytical Biochemistry, 204, pp 190-197, 1992 by Laure. J. Reynolds. Lori L. Hughes and Edward A. Dennis: the disclosure of which is incorporated herein for reference.
Bovine Serum Albumin (fatty acid free) (1 g/L) (Sigma A-7030)
pH 7.5 (adjusted with NaOH)
pH 4.5 (adjusted with acetic acid)
1 mg of sPLA2 is dissolved in 1 ml of an enzyme buffer. Thereafter, the solution is maintained at 4° C.
In the assay, 5 μl of the solution is diluted with 1995 μl of the reaction buffer to be used.
198 mg of 5,5′-dithiobis-2-[…] (manufactured by Wako Pure Chemicals) is dissolved in 100 ml of H2O
100 mg of racemic 1,2-bis(heptanoylthio)-1,2-dideoxy-sn-glycero-3-phospholylcholine is dissolved in 1 ml of chloroform.
624.9 mg of Triton-X 100 is dissolved in the reaction buffer.
Enzyme Reaction: for 1 plate of Microtiterplate
1) 0.106 ml of the substrate solution is put in a centrifugal tube, and nitrogen gas is jetted to remove the solvent. 0.54 ml of Triton-X 100 is added thereto, the mixture is stirred, thereafter it is sonified in a bath type sonification to dissolve. To the resulting product are added 17.8 m1l of the reaction buffer and 0.46 ml of DTNB, and 0.18 ml each of the admixture is poured to wells of the 96 well microtiterplate.
2) 10 μl of a test compound (or solvent blank) are added in accordance with alignment of plates which has been previously set.
3) Incubation is effected at 40° C. for 15 minutes.
4) 20 μl of an enzyme solution (sPLA2) which has been previously diluted (50 ng/well) are added to start reaction (40° C., 30 minutes).
5) Changes in absorbancy for 30 minutes are measured by a plate reader, and inhibition activity was calculated (OD: 405 nm).
6) IC50 was determined by plotting log concentration with respect to inhibition values within 10% to 90% inhibiting range.

Row | Structure (SMILES) | IC50 [1] [nM] | melting point
1 | CCc1c(C(=O)C(N)=O)c2c(OCC(=O)O)cc(CN3CCOCC3)nn2c1Cc1ccccc1 [Compound I-60] | 365 | 167 to 168 °C
2 | COC(=O)COc1cc(Cc2ccccc2)nn2c(Cc3ccccc3)c(C)c(C(=O)C(N)=O)c12 [Compound I-42] | 26 | 204 to 206 °C
3 | COC(=O)COc1cc(Cc2ccccc2)nn2c(C)c(C)c(C(=O)C(N)=O)c12 [Compound I-51] | 25600 | 199 to 201 °C
4 | CCc1c(C(=O)C(N)=O)c2c(OCC(=O)O)cc(C)nn2c1Cc1ccccc1-c1ccccc1 [Compound I-65] | 7 | 218 to 219 °C (dec.)
5 | CCc1c(C(=O)C(N)=O)c2c(OCC(=O)O)cc(COc3ccc(F)cc3)nn2c1Cc1ccccc1 [Compound I-75] | 9 | 215 to 216 °C
6 | CCc1c(C(=O)C(N)=O)c2c(OCC(=O)O)cc(COc3ccc(OC)cc3)nn2c1Cc1ccccc1 [Compound I-76] | 6 | 218 to 219 °C
7 | CCc1c(C(=O)C(N)=O)c2c(OCC(=O)OC)cc(C(F)(F)F)nn2c1Cc1ccc(F)cc1 [Compound I-14] | 883 | 200 to 202 °C
8 | CCc1c(C(=O)C(N)=O)c2c(OCC(=O)OC)cc(COc3ccc(OC)c(OC)c3)nn2c1Cc1ccccc1 [Compound I-47] | 618 | 176 to 179 °C
9 | CCc1c(C(=O)C(N)=O)c2c(OCC(=O)O)cc(CSc3ccccc3)nn2c1Cc1ccccc1 [Compound I-58] | 9 | 226 to 228 °C (dec.)
10 | CCc1cc(OCC(=O)OC)c2c(C(=O)C(N)=O)c(C)c(Cc3ccccc3)n2n1 [Compound I-40] | 99 | 194 to 196 °C
11 | CCc1c(C(=O)C(N)=O)c2c(OCC(=O)O)cc(C3CCCC3)nn2c1Cc1ccccc1 [Compound I-68] | 25 | 250 to 252 °C (dec.)
12 | CCc1c(C(=O)C(N)=O)c2c(OCC(=O)O)cc(C(C)C)nn2c1Cc1ccccc1 [Compound I-20] | 19 | 234 to 236 °C (dec.)
13 | COC(=O)COc1cc(-c2ccccc2)nn2c(Cc3ccccc3)c(C)c(C(=O)C(N)=O)c12 [Compound I-45] | 30 | 251 to 252 °C
14 | CCc1c(C(=O)C(N)=O)c2c(OCC(=O)OCc3ccccc3)cc(CN3CCOCC3)nn2c1Cc1ccccc1 [Compound I-30] | 4520 | 183 to 184 °C
15 | CCc1c(C(=O)C(N)=O)c2c(OCC(=O)OC)cc(C)nn2c1Cc1cccc(Oc2ccccc2)c1 [Compound I-36] | 102 | 201 to 202 °C
16 | Cc1cc(OCC(=O)O)c2c(C(=O)C(N)=O)c(C)c(Cc3ccccc3-c3ccc(F)cc3)n2n1 [Compound I-82] | 93 | 242 to 244 °C (dec.)
17 | CCc1c(C(=O)C(N)=O)c2c(OCC(=O)OC)cc(C3CCCCC3)nn2c1Cc1ccccc1 [Compound I-37] | 212 | 207 to 209 °C (dec.)
18 | COC(=O)COc1cc(CSC)nn2c(Cc3ccccc3)c(C)c(C(=O)C(N)=O)c12 [Compound I-43] | 154 | 210 to 211 °C
19 | CCc1c(C(=O)C(N)=O)c2c(OCC(=O)O)cc(C)nn2c1Cc1ccccc1-c1ccc(F)cc1 [Compound I-84] | 8 | 214 to 216 °C (dec.)
20 | CCc1c(C(=O)C(N)=O)c2c(OCC(=O)OCc3ccccc3)cc(CN3CCN(C)CC3)nn2c1Cc1ccccc1 [Compound I-31] | 15600 | 202 to 203 °C
21 | Cc1c(C(=O)C(N)=O)c2c(OCC(=O)O)cc(-c3ccccc3)nn2c1Cc1ccccc1 [Compound I-17] | 7 | 253 to 254 °C (dec.)

Row | Structure (SMILES) | IC50 [1] [nM] | melting point
22 | CCc1c(C(=O)C(N)=O)c2c(OCC(=O)OC)cc(-c3ccccc3)nn2c1Cc1ccccc1F [Compound I-15] | 97 | 244 to 246 °C
23 | Cc1cc(OCC(=O)OCCN2CCOCC2)c2c(C(=O)C(N)=O)c(C)c(Cc3ccccc3)n2n1 [Compound I-56] | 52 | 160 to 161 °C
24 | CCc1c(C(=O)C(N)=O)c2c(OCC(=O)OCc3ccccc3)cc(CN3CCCC3)nn2c1Cc1ccccc1 [Compound I-29] | 1520 | 185 to 186 °C
25 | CCc1cc(OCC(=O)O)c2c(C(=O)C(N)=O)c(C)c(Cc3ccccc3)n2n1 [Compound I-70] | 9 | 200 to 201 °C
26 | CCc1c(C(=O)C(N)=O)c2c(OCC(=O)OC)cc(-c3ccc4c(c3)OCO4)nn2c1Cc1ccccc1 [Compound I-39] | 79 | 245 to 247 °C (dec.)
27 | CCc1c(C(=O)C(N)=O)c2c(OCC(=O)OCc3ccccc3)cc(CN=[N+]=[N-])nn2c1Cc1ccccc1 [Compound I-50] | 526 | 178 to 179 °C
28 | CCc1c(C(=O)C(N)=O)c2c(OCC(=O)O)cc(-c3ccc4c(c3)OCO4)nn2c1Cc1ccccc1 [Compound I-69] | 8 | 240 to 243 °C (dec.)
29 | CCc1c(C(=O)C(N)=O)c2c(OCC(=O)O)cc(-c3ccc(F)cc3)nn2c1Cc1ccccc1 [Compound I-62] | 12 | 245 to 248 °C (dec.)
30 | CCc1c(C(=O)C(N)=O)c2c(OCC(=O)OC)cc(COc3ccc(OC)cc3)nn2c1Cc1ccccc1 [Compound I-46] | 268 | 167 to 168 °C
31 | CCc1c(C(=O)C(N)=O)c2c(OCC(=O)O)cc(COc3ccc(OC)c(OC)c3)nn2c1Cc1ccccc1 [Compound I-77] | 10 | 204 to 206 °C
32 | CCc1c(C(=O)C(N)=O)c2c(OCC(=O)OC)ccnn2c1Cc1ccccc1 [Compound I-1, Methyl (5-aminooxalyl-7-benzyl-6-ethylpyrrolo[1,2-b]pyridazine-4-yloxy)acetate] | 248 | 210 to 212 °C
33 | COCc1cc(OCC(=O)OC)c2c(C(=O)C(N)=O)c(C)c(Cc3ccccc3)n2n1 [Compound I-44] | 315 | 228 to 229 °C (dec.)
34 | CCc1c(C(=O)C(N)=O)c2c(OCC(=O)OC)cc(COc3ccc(F)cc3)nn2c1Cc1ccccc1 [Compound I-7] | 223 | 178 to 179 °C
35 | CSCc1cc(OCC(=O)O)c2c(C(=O)C(N)=O)c(C)c(Cc3ccccc3)n2n1 [Compound I-73] | 19 | 228 to 229 °C (dec.)
36 | CCc1c(C(=O)C(N)=O)c2c(OCC(=O)OC)cc(C)nn2c1Cc1ccc(F)cc1 [Compound I-12] | 745 | 252 to 254 °C
37 | CCc1c(C(=O)C(N)=O)c2c(OCC(=O)OC)cc(COc3ccc(C)cc3)nn2c1Cc1ccccc1 [Compound I-48] | 211 | 191 to 192 °C
38 | Cc1c(C(=O)C(N)=O)c2c(OCC(=O)O)cc(Cc3ccccc3)nn2c1Cc1ccccc1 [Compound I-72] | 9 | 245 to 247 °C (dec.)
39 | CCc1c(C(=O)C(N)=O)c2c(OCC(=O)OC)cc(C)nn2c1Cc1ccccc1 [Compound I-4, Methyl (5-aminooxalyl-7-benzyl-6-ethyl-2-methylpyrrolo[1,2-b]pyridazine-4-yloxy)acetate] | 150 | 225 to 226 °C
40 | CCc1c(C(=O)C(N)=O)c2c(OCC(=O)O)cc(-c3ccc(OC)cc3)nn2c1Cc1ccccc1 [Compound I-64] | 7 | 248 to 250 °C (dec.)
41 | CCc1c(C(=O)C(N)=O)c2c(OCC(=O)OC)cc(-c3ccc(F)cc3)nn2c1Cc1ccccc1 [Compound I-33] | 72 | 249 to 253 °C (dec.)
42 | CCc1c(C(=O)C(N)=O)c2c(OCC(=O)OC)cc(-c3ccc(F)cc3)nn2c1Cc1ccc(F)cc1 [Compound I-32] | 239 | 274 to 276 °C (dec.)
